What was measured:
Raji = test: Antiproliferative activity against human Raji assessed as combination index at 20 uM incubated for 72 hrs in presence of GI50 dose of Palbociclib by CellTiter-Glo luminescence assay; assay type: functional
T47D = test: Antiproliferative activity against human T47D assessed as combination index at 20 uM incubated for 72 hrs in presence of GI50 dose of Lapatinib by CellTiter-Glo luminescence assay; assay type: functional
SW-620 = test: Antiproliferative activity against human SW620 cells incubated for 72 hrs by CellTiter-Glo luminescence assay; assay type: functional; conditions: SW-620, 72 h
SK-MEL19 [1] = test: Antiproliferative activity against human SK-MEL-19 assessed as combination index at 5 uM incubated for 72 hrs in presence of GI50 dose of Taxotere by CellTiter-Glo luminescence assay; assay type: functional
SK-MEL19 [2] = test: Antiproliferative activity against human SK-MEL-19 assessed as combination index at 5 uM incubated for 72 hrs in presence of GI50 dose of Palbociclib by CellTiter-Glo luminescence assay; assay type: functional
A-375 = test: Antiproliferative activity against human A375 cells incubated for 72 hrs by CellTiter-Glo luminescence assay; assay type: functional; conditions: A-375, 72 h
[3] = target: Serine/threonine-protein kinase pim-3 (Homo sapiens, UniProt Q86V86); test: Inhibition of N-terminal 6-His tagged human recombinant PIM3 using PIM tide (ARKRRRHPSGPPTA) as substrate incubated for 1 hr by fluorescence based assay
NCI-H522 = test: Antiproliferative activity against human NCI-H522 cells incubated for 72 hrs by CellTiter-Glo luminescence assay; assay type: functional; conditions: NCI-H522, 72 h
[4] = target: T1, Receptor-type tyrosine-protein kinase FLT3 (Homo sapiens, UniProt P36888); test: Inhibition of human FLT3 using EAIYAAPFAKKK as substrate incubated for 60 mins by fluorescence based assay
T1 sequence (P36888 whole entry): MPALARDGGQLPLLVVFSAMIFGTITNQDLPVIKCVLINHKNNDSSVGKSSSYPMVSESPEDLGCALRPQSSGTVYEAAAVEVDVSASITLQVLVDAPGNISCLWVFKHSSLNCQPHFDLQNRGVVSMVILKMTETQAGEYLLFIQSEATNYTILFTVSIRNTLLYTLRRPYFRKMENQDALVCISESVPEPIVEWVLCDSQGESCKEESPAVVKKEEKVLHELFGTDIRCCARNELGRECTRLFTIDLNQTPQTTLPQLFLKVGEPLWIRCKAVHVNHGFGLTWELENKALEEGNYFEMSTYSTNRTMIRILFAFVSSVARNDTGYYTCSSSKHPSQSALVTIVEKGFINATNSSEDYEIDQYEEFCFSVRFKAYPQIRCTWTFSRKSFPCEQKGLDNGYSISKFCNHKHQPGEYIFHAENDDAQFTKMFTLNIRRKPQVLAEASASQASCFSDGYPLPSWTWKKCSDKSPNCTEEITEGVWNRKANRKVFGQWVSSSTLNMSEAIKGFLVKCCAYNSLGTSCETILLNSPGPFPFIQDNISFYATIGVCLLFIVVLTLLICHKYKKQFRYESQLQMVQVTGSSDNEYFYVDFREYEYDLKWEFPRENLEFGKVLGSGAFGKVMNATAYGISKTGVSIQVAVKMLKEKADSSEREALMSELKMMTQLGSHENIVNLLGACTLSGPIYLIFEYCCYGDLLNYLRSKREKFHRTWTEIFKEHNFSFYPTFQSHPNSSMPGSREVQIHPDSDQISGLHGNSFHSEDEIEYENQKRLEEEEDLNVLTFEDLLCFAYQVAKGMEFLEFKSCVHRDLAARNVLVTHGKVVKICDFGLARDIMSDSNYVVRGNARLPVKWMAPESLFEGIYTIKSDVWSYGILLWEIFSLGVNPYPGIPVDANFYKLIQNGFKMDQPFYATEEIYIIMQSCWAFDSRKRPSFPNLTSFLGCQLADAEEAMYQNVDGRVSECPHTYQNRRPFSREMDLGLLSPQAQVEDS

[5] = target: Serine/threonine-protein kinase pim-2 (Homo sapiens, UniProt Q9P1W9); test: Inhibition of His tagged human recombinant PIM2 using PIM tide (ARKRRRHPSGPPTA) as substrate incubated for 1 hr by fluorescence based assay
BT-549 = test: Antiproliferative activity against human BT549 cells incubated for 72 hrs by CellTiter-Glo luminescence assay; assay type: functional; conditions: BT-549, 72 h
DU-145 = test: Antiproliferative activity against human DU145 cells incubated for 72 hrs by CellTiter-Glo luminescence assay; assay type: functional; conditions: DU-145, 72 h
MV4-11 [6] = test: Antiproliferative activity against human MV4-11 assessed as combination index at 10 uM incubated for 72 hrs in presence of GI50 dose of GDC-0941 by CellTiter-Glo luminescence assay; assay type: functional
MV4-11 [7] = test: Antiproliferative activity against human MV4-11 cells incubated for 72 hrs by CellTiter-Glo luminescence assay; assay type: functional; conditions: MV4-11, 72 h
CAKI-1 = test: Antiproliferative activity against human CAKI-1 cells incubated for 72 hrs by CellTiter-Glo luminescence assay; assay type: functional; conditions: CAKI-1, 72 h
NCI-H1650 = test: Antiproliferative activity against human NCI-H1650 cells incubated for 72 hrs by CellTiter-Glo luminescence assay; assay type: functional; conditions: NCI-H1650, 72 h
MIA PaCa-2 = test: Antiproliferative activity against human MIAPaCa2 cells incubated for 72 hrs by CellTiter-Glo luminescence assay; assay type: functional; conditions: MIA PaCa-2, 72 h
SK-MEL19 [8] = test: Antiproliferative activity against human SK-MEL-19 cells incubated for 72 hrs by CellTiter-Glo luminescence assay; assay type: functional; conditions: SK-MEL19, 72 h
PC-3 = test: Antiproliferative activity against human PC3 assessed as combination index at 20 uM incubated for 72 hrs in presence of GI50 dose of GDC-0941 by CellTiter-Glo luminescence assay; assay type: functional
JeKo-1 = test: Antiproliferative activity against human JeKo1 cells incubated for 72 hrs by CellTiter-Glo luminescence assay; assay type: functional; conditions: JeKo-1, 72 h
MDA-MB-231 [9] = test: Antiproliferative activity against human MDA-MB-231 assessed as combination index at 20 uM incubated for 72 hrs in presence of GI50 dose of GDC-0941 by CellTiter-Glo luminescence assay; assay type: functional
HCT-116 = test: Antiproliferative activity against human HCT116 cells incubated for 72 hrs by CellTiter-Glo luminescence assay; assay type: functional; conditions: HCT-116, 72 h
SK-BR-3 = test: Antiproliferative activity against human SKBR3 cells incubated for 72 hrs by CellTiter-Glo luminescence assay; assay type: functional; conditions: SK-BR-3, 72 h
MDA-MB-231 [10] = test: Antiproliferative activity against human MDA-MB-231 assessed as combination index at 20 uM incubated for 72 hrs in presence of GI50 dose of PD-0325901 by CellTiter-Glo luminescence assay; assay type: functional
[11] = target: Voltage-gated inwardly rectifying potassium channel KCNH2 (Homo sapiens, UniProt Q12809)
SK-MEL19 [12] = test: Antiproliferative activity against human SK-MEL-19 assessed as combination index at 5 uM incubated for 72 hrs in presence of GI50 dose of Lapatinib by CellTiter-Glo luminescence assay; assay type: functional

Sequence of Voltage-gated inwardly rectifying potassium channel KCNH2 (Q12809 whole entry): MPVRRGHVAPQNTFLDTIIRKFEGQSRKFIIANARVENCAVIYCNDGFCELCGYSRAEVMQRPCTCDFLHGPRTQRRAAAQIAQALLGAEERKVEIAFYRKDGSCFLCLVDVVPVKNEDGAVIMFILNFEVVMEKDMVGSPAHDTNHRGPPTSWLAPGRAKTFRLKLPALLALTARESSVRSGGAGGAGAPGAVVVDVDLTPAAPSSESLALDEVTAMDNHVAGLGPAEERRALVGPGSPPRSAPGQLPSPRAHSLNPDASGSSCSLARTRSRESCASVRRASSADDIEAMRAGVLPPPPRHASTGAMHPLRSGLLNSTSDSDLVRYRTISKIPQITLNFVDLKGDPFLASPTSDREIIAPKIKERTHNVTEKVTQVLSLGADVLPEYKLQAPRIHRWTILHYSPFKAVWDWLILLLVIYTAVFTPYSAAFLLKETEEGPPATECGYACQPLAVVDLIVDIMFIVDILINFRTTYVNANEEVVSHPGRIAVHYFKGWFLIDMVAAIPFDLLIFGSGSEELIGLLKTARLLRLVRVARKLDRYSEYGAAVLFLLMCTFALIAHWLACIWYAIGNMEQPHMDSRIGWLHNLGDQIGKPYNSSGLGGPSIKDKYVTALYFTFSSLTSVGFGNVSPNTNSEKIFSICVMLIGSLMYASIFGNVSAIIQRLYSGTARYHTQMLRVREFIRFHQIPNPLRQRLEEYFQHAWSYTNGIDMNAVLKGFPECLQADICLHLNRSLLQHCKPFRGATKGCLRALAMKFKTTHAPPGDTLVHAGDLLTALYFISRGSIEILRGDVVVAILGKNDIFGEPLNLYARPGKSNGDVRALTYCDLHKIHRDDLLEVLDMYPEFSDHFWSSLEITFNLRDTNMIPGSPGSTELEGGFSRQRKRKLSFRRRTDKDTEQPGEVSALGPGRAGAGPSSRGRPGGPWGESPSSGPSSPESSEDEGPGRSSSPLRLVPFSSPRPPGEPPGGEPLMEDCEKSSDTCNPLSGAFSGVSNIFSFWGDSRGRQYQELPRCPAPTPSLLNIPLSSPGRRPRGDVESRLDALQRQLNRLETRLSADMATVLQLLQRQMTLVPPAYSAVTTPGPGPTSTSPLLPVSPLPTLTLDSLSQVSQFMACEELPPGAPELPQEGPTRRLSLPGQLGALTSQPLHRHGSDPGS
Sequence of Serine/threonine-protein kinase pim-2 (Q9P1W9 whole entry): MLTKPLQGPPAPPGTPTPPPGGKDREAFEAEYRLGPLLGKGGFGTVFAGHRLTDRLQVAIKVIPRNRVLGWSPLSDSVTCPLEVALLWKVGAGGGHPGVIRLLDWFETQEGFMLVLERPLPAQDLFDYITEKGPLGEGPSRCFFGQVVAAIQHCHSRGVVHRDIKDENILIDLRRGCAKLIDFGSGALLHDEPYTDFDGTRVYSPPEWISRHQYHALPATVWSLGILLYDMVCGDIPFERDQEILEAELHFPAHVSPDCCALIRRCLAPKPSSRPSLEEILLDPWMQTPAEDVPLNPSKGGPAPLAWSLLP

`COCCN1CCOc2c1cnn1c(-c3ccc4cccc(NCC5CCNCC5)c4n3)nnc21` showed a CI (Raji) of 0.52, a CI (T47D) of 0.0001 and a GI50 (SW-620) of 8.73 µM. The CI (SK-MEL19 [1]) was 0.535, the CI (SK-MEL19 [2]) was 0.351 and the GI50 (A-375) was 21.8 µM. The IC50 [3] was 0.07 µM, the GI50 (NCI-H522) was 9.7 µM and the IC50 [4] was greater than 10 µM. It also gave an IC50 [5] of 5.53 µM, a GI50 (BT-549) of 20.4 µM and a GI50 (DU-145) of 22.4 µM. It also gave a CI (MV4-11 [6]) of 0.334, a GI50 (MV4-11 [7]) of 6.46 µM and a GI50 (CAKI-1) of 22.1 µM. For the same molecule, the GI50 (NCI-H1650) was 22.5 µM, the GI50 (MIA PaCa-2) was 17.4 µM and the GI50 (SK-MEL19 [8]) was 1.48 µM. It also gave a CI (PC-3) of 0.094, a GI50 (JeKo-1) of 7.3 µM and a CI (MDA-MB-231 [9]) of 0.0001. The GI50 (HCT-116) was 21.2 µM, the GI50 (SK-BR-3) was 21 µM and the CI (MDA-MB-231 [10]) was 0.32. For the same molecule, the IC50 [11] was greater than 20 µM and the CI (SK-MEL19 [12]) was 0.508.

Reference: ChEMBL document CHEMBL4340512, “Discovery of novel triazolo[4,3-b]pyridazin-3-yl-quinoline derivatives as PIM inhibitors” (Eur J Med Chem, 2019)
